The test system of assay [1] is MATIN. Kind of assay: Herbicidal post-emergence action 1b (twin sowing, 1280 g/ha). Type of assay: in vivo, Matricaria inodora. The settings on record: dosage 1280 g/ha, visual rating about 3 weeks after treatment. As for the experimental part: (§1) [table] b) Seeds of mono- and dicotyledonous weed plants are placed in plastic pots in sandy loam soil (twin sowing with one species each of mono- or dicotyledonous weed plants per pot), covered with soil and cultivated in a greenhouse under controlled growth conditions. 2 to 3 weeks after sowing, the test plants are treated at the one-leaf stage. The compounds of the invention, formulated in the form of wettable powders (WP) or as emulsion concentrates (EC), are applied to the green parts of the plants as aqueous suspension or emulsion with addition of 0.5% additive at a water application rate equivalent to 600 litres per hectare. After the test plants have been kept in the greenhouse under optimum growth conditions for about 3 weeks, the activity of the preparations is rated visually in comparison to untreated controls. For example, 100% activity=the plants have died, 0% activity=like control plants. Tables A16 to A21 below show the effects of selected compounds of the general formula (I) according to Tables 1 and 2 on various harmful plants and at an application rate corresponding to 1280 g/ha, which were obtained by the experimental procedure mentioned above.

For assay [2], the system named is ECHCG. Kind of assay: Herbicidal pre-emergence action 2b (doubly sown, 1280 g/ha). To be noted: doubly sown pots, dosage 1280 g/ha, visual scoring after about 3 weeks. Format: in vivo, Echinochloa crus-galli. An excerpt: (§2) [table] b) Seeds of mono- and dicotyledonous weed plants are placed in plastic pots in sandy loam soil (doubly sown with one species each of mono- or dicotyledonous weed plants per pot) and covered with soil. The compounds of the invention, formulated in the form of wettable powders (WP) or as emulsion concentrates (EC), are then applied onto the surface of the covering soil as aqueous suspension or emulsion with addition of 0.5% additive at a water application rate equivalent to 600 litres per hectare. After the treatment, the pots are placed in a greenhouse and kept under good growth conditions for the trial plants. After about 3 weeks, the effect of the preparations is scored visually in comparison with untreated controls as percentages. For example, 100% activity=the plants have died, 0% activity=like control plants. Tables B16 to B21 below show the effects of selected compounds of the general formula (I) according to Tables 1 and 2 on various harmful plants and at an application rate corresponding to 1280 g/ha, which were obtained by the experimental procedure mentioned above.

In assay [3] the test system is STEME. The description is as above. Format: in vivo, Stellaria media. To be noted: doubly sown pots, dosage 1280 g/ha, visual scoring after about 3 weeks.
From the text: as §2

The subject of assay [4] is POAAN. Kind of assay: Herbicidal post-emergence action 1b (twin sowing, 1280 g/ha). The settings on record: dosage 1280 g/ha, visual rating about 3 weeks after treatment. Format: in vivo, Poa annua. The protocol: as §1
Assay [5] concerns POAAN. Kind of assay: Herbicidal pre-emergence action 2b (doubly sown, 1280 g/ha). Type of assay: in vivo, Poa annua. To be noted: doubly sown pots, dosage 1280 g/ha, visual scoring after about 3 weeks.
From the text: as §2

Assay [6] deals with MATIN. The assay is described as above. Type of assay: in vivo, Matricaria inodora. To be noted: doubly sown pots, dosage 1280 g/ha, visual scoring after about 3 weeks.
From the text: as §2

A further assay has as its system DIGSA. The description is as above. To be noted: doubly sown pots, dosage 1280 g/ha, visual scoring after about 3 weeks. Type of assay: in vivo, Digitaria sanguinalis.
From the text: as §2

In assay [7] the test system is AMARE. The assay is described as above. Type of assay: in vivo, Amaranthus retroflexus. The settings on record: doubly sown pots, dosage 1280 g/ha, visual scoring after about 3 weeks.
From the text: as §2

The test system of assay [8] is STEME. Kind of assay: Herbicidal post-emergence action 1b (twin sowing, 1280 g/ha). Format: in vivo, Stellaria media. To be noted: dosage 1280 g/ha, visual rating about 3 weeks after treatment. As for the experimental part:
as §1

Assay [9] has as its system SETVI. Kind of assay: Herbicidal post-emergence action 1a (greenhouse pots, visual rating). Format: in vivo, Setaria viridis. The settings on record: Dosage 320 g/ha; rated visually about 3 weeks after treatment; 100% = plants have died, 0% = like control plants. As for the experimental part:
(§3) [table] a) Seeds of monocotyledonous and dicotyledonous weeds and crop plants are placed in sandy loam in plastic or organic plant pots, covered with soil and cultivated in a greenhouse under controlled growth conditions. 2 to 3 weeks after sowing, the test plants are treated at the one-leaf stage. The compounds of the invention, formulated in the form of wettable powders (WP) or as emulsion concentrates (EC), are then sprayed onto the green parts of the plants as aqueous suspension or emulsion with addition of 0.5% additive at a water application rate of 600 1/ha (converted). After the test plants have been kept in the greenhouse under optimum growth conditions for about 3 weeks, the activity of the preparations is rated visually in comparison to untreated controls. For example, 100% activity=the plants have died, 0% activity=like control plants. Tables A1 to A15 below show the effects of selected compounds of the general formula (I) according to Tables 1 and 2 on various harmful plants and an application rate corresponding to 320 g/ha and/or 80 g/ha, which were obtained by the experimental procedure mentioned above.

Assay [10] has as its system ALOMY. The description is as above. Format: in vivo, Alopecurus myosuroides. To be noted: rated visually about 3 weeks after treatment, 100% = plants have died, 0% = like control plants. The protocol: as §3
In assay [11] the test system is VERPE. Described as above. Type of assay: in vivo, Veronica persica. The settings on record: visual rating about 3 weeks after treatment. The protocol:
as §3

In assay [12] the test system is LOLRI. Kind of assay: Herbicidal pre-emergence action 2a (greenhouse pots, visual scoring). To be noted: dosage 320 g/ha, visual scoring after about 3 weeks vs untreated controls. Format: in vivo, Lolium rigidum. An excerpt:
(§4) [table] a) Seeds of monocotyledonous and dicotyledonous weed plants and crop plants are placed in plastic or organic plant pots and covered with soil. The compounds of the invention, formulated in the form of wettable powders (WP) or as emulsion concentrates (EC), are then applied onto the surface of the covering soil as aqueous suspension or emulsion with addition of 0.5% additive at a water application rate of 600 1/ha (converted). After the treatment, the pots are placed in a greenhouse and kept under good growth conditions for the trial plants. After about 3 weeks, the effect of the preparations is scored visually in comparison with untreated controls as percentages. For example, 100% activity=the plants have died, 0% activity=like control plants. Tables B1 to B15 below show the effects of selected compounds of the general formula (I) according to Tables 1 and 2 on various harmful plants and an application rate corresponding to 320 g/ha and/or 80 g/ha, which were obtained by the experimental procedure mentioned above.

The subject of assay [13] is VERPE. The description is as above. Type of assay: in vivo, Veronica persica. The settings on record: dosage 320 g/ha, visual scoring after about 3 weeks vs untreated controls.
From the text: as §4

For the next assay, the system named is AVEFA. Kind of assay: Herbicidal post-emergence action 1a (greenhouse pots, visual rating). To be noted: rated visually about 3 weeks after treatment, 100% = plants have died, 0% = like control plants. Type of assay: in vivo, Avena fatua. As for the experimental part: as §3
The next assay relates to POLCO. The description is as above. Format: in vivo, Polygonum convolvulus. The settings on record: visual rating about 3 weeks after treatment. As for the experimental part:
as §3

Assay [14] concerns AMARE. The assay is described as above. Format: in vivo, Amaranthus retroflexus. The settings on record: visual rating about 3 weeks after treatment. As for the experimental part: as §3
For assay [15], the system named is ALOMY. Kind of assay: Herbicidal pre-emergence action 2a (greenhouse pots, visual scoring). To be noted: dosage 320 g/ha, visual scoring after about 3 weeks. Type of assay: in vivo, Alopecurus myosuroides.
From the text: as §4

The subject of assay [16] is AMARE. Described as above. To be noted: dosage 320 g/ha, visual scoring after about 3 weeks vs untreated controls. Type of assay: in vivo, Amaranthus retroflexus.
From the text: as §4

In assay [17] the test system is MATIN. Kind of assay: Herbicidal post-emergence action 1a (greenhouse pots, visual rating). Type of assay: in vivo, Matricaria inodora. The settings on record: dosage 320 g/ha, visual rating about 3 weeks after treatment. The protocol: as §3
For assay [18], the system named is LOLRI. The description is as above. The settings on record: Dosage 320 g/ha; rated visually about 3 weeks after treatment; 100% = plants have died, 0% = like control plants. Format: in vivo, Lolium rigidum. The protocol:
as §3

For assay [19], the system named is SETVI. Kind of assay: Herbicidal pre-emergence action 2a (greenhouse pots, visual scoring). Type of assay: in vivo, Setaria viridis. To be noted: dosage 320 g/ha, visual scoring after about 3 weeks vs untreated controls.
From the text: as §4

Assay [20] has as its system ECHCG. Kind of assay: Herbicidal post-emergence action 1a (greenhouse pots, visual rating). Type of assay: in vivo, Echinochloa crus-galli. To be noted: Dosage 320 g/ha; rated visually about 3 weeks after treatment; 100% = plants have died, 0% = like control plants. The protocol: as §3
In another assay the test system is ABUTH. The description is as above. Format: in vivo, Abutilon theophrasti. The settings on record: visual rating about 3 weeks after treatment. As for the experimental part:
as §3

The test system of assay [21] is MATIN. Kind of assay: Herbicidal pre-emergence action 2a (greenhouse pots, visual scoring). Type of assay: in vivo, Matricaria inodora. To be noted: dosage 320 g/ha, visual scoring after about 3 weeks vs untreated controls.
From the text: as §4

Take `O=C(O)COc1nn(-c2cnccn2)c(-c2ccc(F)c(F)c2)c1Br` [Example I-41]: the “Post-emergence action at 1280 g/ha against MATIN in %” value with MATIN [1] turned out to be 90%. The “Pre-emergence action at 1280 g/ha against ECHCG in %” value with ECHCG [2] worked out at 100%. Moreover, in the assay on STEME [3], the “Pre-emergence action at 1280 g/ha against STEME in %” value was 100%. Further, the “Post-emergence action at 1280 g/ha against POAAN in %” value in the assay with POAAN [4] came to 100%. Also, the “Pre-emergence action at 1280 g/ha against POAAN in %” value with POAAN [5] amounted to 100%. Also, in the assay with MATIN [6], the “Pre-emergence action at 1280 g/ha against MATIN in %” value was 100%. In the assay with DIGSA, the “Pre-emergence action at 1280 g/ha against DIGSA in %” value is reported as 100%. In the assay with AMARE [7], the “Pre-emergence action at 1280 g/ha against AMARE in %” value was determined as 100%.
For the molecule `CCOC(=O)COc1nn(-c2cnccn2)c(-c2ccc(F)nc2)c1[N+](=O)[O-]` [Example I-50], the “Post-emergence action at 1280 g/ha against MATIN in %” value in the assay with MATIN [1] worked out at 90%. Further, the “Pre-emergence action at 1280 g/ha against STEME in %” value with STEME [3] was 90%. Further, the “Post-emergence action at 1280 g/ha against POAAN in %” value in the assay with POAAN [4] was 90%. For the same molecule, in the assay on POAAN [5], the “Pre-emergence action at 1280 g/ha against POAAN in %” value is given as 100%. Further, the “Pre-emergence action at 1280 g/ha against MATIN in %” value in the assay with MATIN [6] amounted to 90%. The “Pre-emergence action at 1280 g/ha against DIGSA in %” value in the assay with DIGSA was determined as 100%. Besides, the “Pre-emergence action at 1280 g/ha against AMARE in %” value in the assay with AMARE [7] is given as 100%. The “Post-emergence action at 1280 g/ha against STEME in %” value in the assay on STEME [8] came to 90%.
Turning to `COC(=O)[C@@H](C)Oc1nn(-c2cnccn2)c(-c2ccc(F)nc2)c1I` [Example I-89], the “Post-emergence action against SETVI in %” value with SETVI [9] is 90%. Also, the “Post-emergence action against ALOMY in %” value with ALOMY [10] (Dosage 80 g/ha) was 80%; with ALOMY [10] (Dosage 320 g/ha), 100%. For the same molecule, the results for the “Post-emergence action against VERPE in %” value in the assay with VERPE [11] (dosage 80 g/ha) and in the assay with VERPE [11] (dosage 320 g/ha) were 80% and 90%, respectively. Also, the “Pre-emergence action against LOLRI in %” value in the assay with LOLRI [12] is 100%. Besides, the “Pre-emergence action against VERPE in %” value in the assay with VERPE [13] worked out at 100%. In addition, the entries for the “Post-emergence action against AVEFA in %” value with AVEFA (Dosage 80 g/ha) and with AVEFA (Dosage 320 g/ha) were 90% and 100%, respectively. For the same molecule, the “Post-emergence action against POLCO in %” value in the assay on POLCO (dosage 80 g/ha) and in the assay with POLCO (dosage 320 g/ha) was 90% in each case. For the same molecule, the “Post-emergence action against AMARE in %” value in the assay on AMARE [14] (dosage 80 g/ha) and in the assay with AMARE [14] (dosage 320 g/ha) was 90% each time. Moreover, in the assay with ALOMY [15], the “Pre-emergence action against ALOMY in %” value worked out at 100%. The “Pre-emergence action against AMARE in %” value with AMARE [16] is 100%. For the same molecule, the “Post-emergence action against MATIN in %” value with MATIN [17] was 80%. Also, in the assay with LOLRI [18], the “Post-emergence action against LOLRI in %” value amounted to 100%. Further, the “Pre-emergence action against SETVI in %” value in the assay on SETVI [19] is 100%. In the assay on ECHCG [20], the “Post-emergence action against ECHCG in %” value is 80%. The “Post-emergence action against ABUTH in %” value with ABUTH (dosage 80 g/ha) and in the assay on ABUTH (dosage 320 g/ha) was 90% each time.
With `CCOC(=O)COc1nn(-c2nccnc2F)c(-c2ccc(F)nc2)c1Br` [Example I-76], the “Pre-emergence action against MATIN in %” value in the assay on MATIN [21] stood at 90%. For the same molecule, the “Pre-emergence action against AMARE in %” value with AMARE [16] is given as 90%.
